From patent publication US7563592B2, “Alizarin-based chromogenic substrates, their uses and composition containing same” (Biomerieux, S.A., priority 1999, dated 2009)

How the values were obtained:
Experiment in all cases: Effect of metal salts on the color of the marker part, substrate 50 mg/l in Columbia medium (Example 3)
Format in all cases: cell-based
Listeria innocua 029 = tested on: Listeria innocua 029
Method: (§1) To the Columbia-base medium (46.37 g/l) supplemented with Alizarin-2-β-D-glucoside (50 mg/l), were added either Manganese chloride, Ammoniacal iron citrate, Tin chloride, or Aluminum sulfate, all at a concentration of 50 mg/l. A control medium with no metal salts was tested in parallel. After autoclaving, these various media were all used to prepare Petri dishes (20 ml per plate). […] It should be pointed out that intensity readings are in arbitrary units. The only purpose of giving these values is to make it possible to compare one strain with another in this respect. The same is true for the examples which follow. Similarly, the strains tested were taken from the Applicant's collection and the number given represents an internal reference specific to this collection. The same internal numbering system is also used in some of the examples given later on.

Listeria innocua 077 = tested on: Listeria innocua 077
Method: as §1

Listeria ivanovii 018 = tested on: Listeria ivanovii 018
Method: as §1

Listeria ivanovii 020 = tested on: Listeria ivanovii 020
Method: as §1

[1] = tested on: Listeria monocytogenes 023
Method: as §1

[2] = tested on: Listeria monocytogenes 079
Method: as §1

Listeria welshimeri 023 = tested on: Listeria welshimeri 023
Method: as §1

[3] = Manganese chloride 50 mg/l, 24 H
[4] = Manganese chloride 50 mg/l, 48 H

Structure (SMILES): O=C1c2ccccc2C(=O)c2c1ccc(O[C@@H]1O[C@H](CO)[C@@H](O)[C@H](O)[C@H]1O)c2O [Alizarin-2-β-D-glucoside]
- Color (Listeria innocua 029; Aluminum sulfate 50 mg/l, 24 H): red
- Intensity (Listeria innocua 029; Aluminum sulfate 50 mg/l, 24 H): 4 arbitrary units
- Color (Listeria innocua 029; Aluminum sulfate 50 mg/l, 48 H): red
- Intensity (Listeria innocua 029; Aluminum sulfate 50 mg/l, 48 H): 4 arbitrary units
- Color (Listeria innocua 029; Control, no metal salt, 24 H): purple
- Intensity (Listeria innocua 029; Control, no metal salt, 24 H): 2 arbitrary units
- Color (Listeria innocua 029; Control, no metal salt, 48 H): purple
- Intensity (Listeria innocua 029; Control, no metal salt, 48 H): 2.3 arbitrary units
- Color (Listeria innocua 029; Iron citrate 50 mg/l, 24 H): purple
- Intensity (Listeria innocua 029; Iron citrate 50 mg/l, 24 H): 4 arbitrary units
- Color (Listeria innocua 029; Iron citrate 50 mg/l, 48 H): purple
- Intensity (Listeria innocua 029; Iron citrate 50 mg/l, 48 H): 4 arbitrary units
- Color (Listeria innocua 029; [3]): purple
- Intensity (Listeria innocua 029; [3]): 2.3 arbitrary units
- Color (Listeria innocua 029; [4]): purple
- Intensity (Listeria innocua 029; [4]): 2.3 arbitrary units
- Color (Listeria innocua 029; Tin chloride 50 mg/l, 24 H): orange
- Intensity (Listeria innocua 029; Tin chloride 50 mg/l, 24 H): 3 arbitrary units
- Color (Listeria innocua 029; Tin chloride 50 mg/l, 48 H): orange
- Intensity (Listeria innocua 029; Tin chloride 50 mg/l, 48 H): 4 arbitrary units
- Color (Listeria innocua 077; Aluminum sulfate 50 mg/l, 24 H): red
- Intensity (Listeria innocua 077; Aluminum sulfate 50 mg/l, 24 H): 4 arbitrary units
- Color (Listeria innocua 077; Aluminum sulfate 50 mg/l, 48 H): red
- Intensity (Listeria innocua 077; Aluminum sulfate 50 mg/l, 48 H): 4 arbitrary units
- Color (Listeria innocua 077; Control, no metal salt, 24 H): purple
- Intensity (Listeria innocua 077; Control, no metal salt, 24 H): 2.3 arbitrary units
- Color (Listeria innocua 077; Control, no metal salt, 48 H): purple
- Intensity (Listeria innocua 077; Control, no metal salt, 48 H): 2.3 arbitrary units
- Color (Listeria innocua 077; Iron citrate 50 mg/l, 24 H): purple
- Intensity (Listeria innocua 077; Iron citrate 50 mg/l, 24 H): 4 arbitrary units
- Color (Listeria innocua 077; Iron citrate 50 mg/l, 48 H): purple
- Intensity (Listeria innocua 077; Iron citrate 50 mg/l, 48 H): 4 arbitrary units
- Color (Listeria innocua 077; [3]): purple
- Intensity (Listeria innocua 077; [3]): 2.3 arbitrary units
- Color (Listeria innocua 077; [4]): purple
- Intensity (Listeria innocua 077; [4]): 2.3 arbitrary units
- Color (Listeria innocua 077; Tin chloride 50 mg/l, 24 H): orange
- Intensity (Listeria innocua 077; Tin chloride 50 mg/l, 24 H): 3 arbitrary units
- Color (Listeria innocua 077; Tin chloride 50 mg/l, 48 H): orange
- Intensity (Listeria innocua 077; Tin chloride 50 mg/l, 48 H): 4 arbitrary units
- Color (Listeria ivanovii 018; Aluminum sulfate 50 mg/l, 24 H): red
- Intensity (Listeria ivanovii 018; Aluminum sulfate 50 mg/l, 24 H): 4 arbitrary units
- Color (Listeria ivanovii 018; Aluminum sulfate 50 mg/l, 48 H): red
- Intensity (Listeria ivanovii 018; Aluminum sulfate 50 mg/l, 48 H): 4 arbitrary units
- Color (Listeria ivanovii 018; Control, no metal salt, 24 H): purple
- Intensity (Listeria ivanovii 018; Control, no metal salt, 24 H): 2.3 arbitrary units
- Color (Listeria ivanovii 018; Control, no metal salt, 48 H): purple
- Intensity (Listeria ivanovii 018; Control, no metal salt, 48 H): 2.3 arbitrary units
- Color (Listeria ivanovii 018; Iron citrate 50 mg/l, 24 H): purple
- Intensity (Listeria ivanovii 018; Iron citrate 50 mg/l, 24 H): 4 arbitrary units
- Color (Listeria ivanovii 018; Iron citrate 50 mg/l, 48 H): purple
- Intensity (Listeria ivanovii 018; Iron citrate 50 mg/l, 48 H): 4 arbitrary units
- Color (Listeria ivanovii 018; [3]): purple
- Intensity (Listeria ivanovii 018; [3]): 2.7 arbitrary units
- Color (Listeria ivanovii 018; [4]): purple
- Intensity (Listeria ivanovii 018; [4]): 2.7 arbitrary units
- Color (Listeria ivanovii 018; Tin chloride 50 mg/l, 24 H): orange
- Intensity (Listeria ivanovii 018; Tin chloride 50 mg/l, 24 H): 3 arbitrary units
- Color (Listeria ivanovii 018; Tin chloride 50 mg/l, 48 H): orange
- Intensity (Listeria ivanovii 018; Tin chloride 50 mg/l, 48 H): 4 arbitrary units
- Color (Listeria ivanovii 020; Aluminum sulfate 50 mg/l, 24 H): red
- Intensity (Listeria ivanovii 020; Aluminum sulfate 50 mg/l, 24 H): 4 arbitrary units
- Color (Listeria ivanovii 020; Aluminum sulfate 50 mg/l, 48 H): red
- Intensity (Listeria ivanovii 020; Aluminum sulfate 50 mg/l, 48 H): 4 arbitrary units
- Color (Listeria ivanovii 020; Control, no metal salt, 24 H): purple
- Intensity (Listeria ivanovii 020; Control, no metal salt, 24 H): 2.3 arbitrary units
- Color (Listeria ivanovii 020; Control, no metal salt, 48 H): purple
- Intensity (Listeria ivanovii 020; Control, no metal salt, 48 H): 2.3 arbitrary units
- Color (Listeria ivanovii 020; Iron citrate 50 mg/l, 24 H): purple
- Intensity (Listeria ivanovii 020; Iron citrate 50 mg/l, 24 H): 4 arbitrary units
- Color (Listeria ivanovii 020; Iron citrate 50 mg/l, 48 H): purple
- Intensity (Listeria ivanovii 020; Iron citrate 50 mg/l, 48 H): 4 arbitrary units
- Color (Listeria ivanovii 020; [3]): purple
- Intensity (Listeria ivanovii 020; [3]): 2.7 arbitrary units
- Color (Listeria ivanovii 020; [4]): purple
- Intensity (Listeria ivanovii 020; [4]): 2.7 arbitrary units
- Color (Listeria ivanovii 020; Tin chloride 50 mg/l, 24 H): orange
- Intensity (Listeria ivanovii 020; Tin chloride 50 mg/l, 24 H): 3 arbitrary units
- Color (Listeria ivanovii 020; Tin chloride 50 mg/l, 48 H): orange
- Intensity (Listeria ivanovii 020; Tin chloride 50 mg/l, 48 H): 4 arbitrary units
- Color ([1]; Aluminum sulfate 50 mg/l, 24 H): red
- Intensity ([1]; Aluminum sulfate 50 mg/l, 24 H): 4 arbitrary units
- Color ([1]; Aluminum sulfate 50 mg/l, 48 H): red
- Intensity ([1]; Aluminum sulfate 50 mg/l, 48 H): 4 arbitrary units
- Color ([1]; Control, no metal salt, 24 H): purple
- Intensity ([1]; Control, no metal salt, 24 H): 2 arbitrary units
- Color ([1]; Control, no metal salt, 48 H): purple
- Intensity ([1]; Control, no metal salt, 48 H): 2 arbitrary units
- Color ([1]; Iron citrate 50 mg/l, 24 H): purple
- Intensity ([1]; Iron citrate 50 mg/l, 24 H): 4 arbitrary units
- Color ([1]; Iron citrate 50 mg/l, 48 H): purple
- Intensity ([1]; Iron citrate 50 mg/l, 48 H): 4 arbitrary units
- Color [1, 3]: purple
- Intensity [1, 3]: 2.7 arbitrary units
- Color [1, 4]: purple
- Intensity [1, 4]: 2.7 arbitrary units
- Color ([1]; Tin chloride 50 mg/l, 24 H): orange
- Intensity ([1]; Tin chloride 50 mg/l, 24 H): 3 arbitrary units
- Color ([1]; Tin chloride 50 mg/l, 48 H): orange
- Intensity ([1]; Tin chloride 50 mg/l, 48 H): 4 arbitrary units
- Color ([2]; Aluminum sulfate 50 mg/l, 24 H): red
- Intensity ([2]; Aluminum sulfate 50 mg/l, 24 H): 4 arbitrary units
- Color ([2]; Aluminum sulfate 50 mg/l, 48 H): red
- Intensity ([2]; Aluminum sulfate 50 mg/l, 48 H): 4 arbitrary units
- Color ([2]; Control, no metal salt, 24 H): purple
- Intensity ([2]; Control, no metal salt, 24 H): 2.3 arbitrary units
- Color ([2]; Control, no metal salt, 48 H): purple
- Intensity ([2]; Control, no metal salt, 48 H): 2.3 arbitrary units
- Color ([2]; Iron citrate 50 mg/l, 24 H): purple
- Intensity ([2]; Iron citrate 50 mg/l, 24 H): 4 arbitrary units
- Color ([2]; Iron citrate 50 mg/l, 48 H): purple
- Intensity ([2]; Iron citrate 50 mg/l, 48 H): 4 arbitrary units
- Color [2, 3]: purple
- Intensity [2, 3]: 2.7 arbitrary units
- Color [2, 4]: purple
- Intensity [2, 4]: 2.7 arbitrary units
- Color ([2]; Tin chloride 50 mg/l, 24 H): orange
- Intensity ([2]; Tin chloride 50 mg/l, 24 H): 3.5 arbitrary units
- Color ([2]; Tin chloride 50 mg/l, 48 H): orange
- Intensity ([2]; Tin chloride 50 mg/l, 48 H): 4 arbitrary units
- Color (Listeria welshimeri 023; Aluminum sulfate 50 mg/l, 24 H): red
- Intensity (Listeria welshimeri 023; Aluminum sulfate 50 mg/l, 24 H): 4 arbitrary units
- Color (Listeria welshimeri 023; Aluminum sulfate 50 mg/l, 48 H): red
- Intensity (Listeria welshimeri 023; Aluminum sulfate 50 mg/l, 48 H): 4 arbitrary units
- Color (Listeria welshimeri 023; Control, no metal salt, 24 H): purple
- Intensity (Listeria welshimeri 023; Control, no metal salt, 24 H): 2.3 arbitrary units
- Color (Listeria welshimeri 023; Control, no metal salt, 48 H): purple
- Intensity (Listeria welshimeri 023; Control, no metal salt, 48 H): 2.3 arbitrary units
- Color (Listeria welshimeri 023; Iron citrate 50 mg/l, 24 H): purple
- Intensity (Listeria welshimeri 023; Iron citrate 50 mg/l, 24 H): 4 arbitrary units
- Color (Listeria welshimeri 023; Iron citrate 50 mg/l, 48 H): purple
- Intensity (Listeria welshimeri 023; Iron citrate 50 mg/l, 48 H): 4 arbitrary units
- Color (Listeria welshimeri 023; [3]): purple
- Intensity (Listeria welshimeri 023; [3]): 2.3 arbitrary units
- Color (Listeria welshimeri 023; [4]): purple
- Intensity (Listeria welshimeri 023; [4]): 2.7 arbitrary units
- Color (Listeria welshimeri 023; Tin chloride 50 mg/l, 24 H): orange
- Intensity (Listeria welshimeri 023; Tin chloride 50 mg/l, 24 H): 3 arbitrary units
- Color (Listeria welshimeri 023; Tin chloride 50 mg/l, 48 H): orange
- Intensity (Listeria welshimeri 023; Tin chloride 50 mg/l, 48 H): 4 arbitrary units
